pIC50: −log10 of the molar value.
Columns and labels:
[1] = Antioxidant activity assessed as DPPH radical scavenging activity after 30 min; format: physicochemical; conditions: DPPH radical solution
[2] = Antioxidant activity assessed as superoxide anion radical scavenging activity after 20 mins by xanthine/xanthine oxidase method; format: physicochemical
Liver microsome = assay: Antioxidant activity in rat liver microsomes assessed as reduction in iron-ascorbic acid-induced lipid […] activity after 30 mins by TBARS assay; format: functional; conditions: 0.5 h
[3] = Aqueous solubility of the compound at room temperature by HPLC; format: physicochemical; conditions: water
Rattus norvegicus [4] = assay: (§1) Neuroprotective activity against middle cerebral artery occlusion-induced focal cerebral ischemia in Sprague-Dawley rat assessed as reduction in absolute infarct volume in striatum at 10 mg/kg, iv administered 30 mins after MCA occlusion measured after 2 hrs of reperfusion by TTC staining (reference value: 41.9 +/- 29 mm'3); format: functional
Rattus norvegicus [5] = assay: as §1, with “cortex” for “striatum”, “195.6” for “41.9”, “11.5” for “29”; format: functional
Rattus norvegicus [6] = assay: as §1, with “infarct total” for “infarct”, “volume” for “volume in striatum”, “237.4” for “41.9”, “13.1” for “29”; format: functional
Rattus norvegicus [7] = assay: as §1, with “corrected total” for “absolute”, “volume” for “volume in striatum”, “163.2” for “41.9”, “9.4” for “29”; format: functional
Rattus norvegicus [8] = assay: Neuroprotective activity against middle cerebral artery occlusion-induced focal cerebral ischemia in Sprague-Dawley rat assessed as reduction in edema at 10 mg/kg, iv administered 30 mins after MCA occlusion measured after 2 hrs of reperfusion by TTC staining (reference value: 13 +/- 0.7 %); format: functional; parameters: scale not given: the % may be the effect or the level left

SMILES: O=C1O[C@H]([C@@H](O)CO)C(O)=C1O [ASCORBIC ACID]
- pIC50 [1]: 4.39
- pIC50 [2]: < 4.30

SMILES: CCN(CC)CCOc1cc(O)c2c(=O)c(OC)c(-c3ccc(O)c(O)c3)oc2c1
- pIC50 [1]: 4.56
- pIC50 [2]: 5.09
- pIC50 (Liver microsome): 4.80

SMILES: COc1c(-c2ccc(O)c(O)c2)oc2cc(O)cc(O)c2c1=O [3-O-METHYLQUERCETIN]
- pIC50 [1]: 4.85
- pIC50 [2]: 4.76
- pIC50 (Liver microsome): 4.72
- solubility [3]: > 50 mM
- Activity (Rattus norvegicus [4]): 27.2 mm3
- Activity (Rattus norvegicus [5]): 79.9 mm3
- Activity (Rattus norvegicus [6]): 108.8 mm3
- Activity (Rattus norvegicus [7]): 78.8 mm3
- Activity (Rattus norvegicus [8]): 5.5%

SMILES: COc1c(-c2cc(O)c(O)c(O)c2)oc2cc(OCCN3CCCC3)cc(O)c2c1=O
- pIC50 [1]: 4.77
- pIC50 [2]: < 4.00
- pIC50 (Liver microsome): 5.00

SMILES: COc1c(-c2cc(O)c(O)c(O)c2)oc2cc(OCCN3CCOCC3)cc(O)c2c1=O
- pIC50 [1]: 4.59
- pIC50 [2]: < 4.00
- pIC50 (Liver microsome): 4.99

SMILES: CCN(CC)CCOc1cc(O)c2c(=O)c(OC)c(-c3cc(O)c(O)c(O)c3)oc2c1.Cl
- pIC50 [1]: 4.64
- pIC50 [2]: < 4.00
- pIC50 (Liver microsome): 4.94
- solubility [3]: > 50 mM
- Activity (Rattus norvegicus [4]): 39.3 mm3
- Activity (Rattus norvegicus [5]): 123.4 mm3
- Activity (Rattus norvegicus [6]): 164 mm3
- Activity (Rattus norvegicus [7]): 108.9 mm3
- Activity (Rattus norvegicus [8]): 9.4%

SMILES: CCN(CC)CCOc1cc(O)cc2oc(-c3ccc(O)c(O)c3)c(OC)c(=O)c12
- pIC50 [1]: < 4.00
- pIC50 [2]: 5.19
- pIC50 (Liver microsome): 4.63

SMILES: CCN(CC)CCOc1cc(O)cc2oc(-c3cc(O)c(O)c(O)c3)c(OC)c(=O)c12
- pIC50 [1]: 4.66
- pIC50 [2]: < 4.00
- pIC50 (Liver microsome): 4.95

SMILES: COc1c(-c2cc(O)c(O)c(O)c2)oc2cc(O)cc(OCCN3CCCCC3)c2c1=O
- pIC50 [1]: 4.49
- pIC50 [2]: < 4.00
- pIC50 (Liver microsome): 4.93

SMILES: COc1c(-c2ccc(O)c(O)c2)oc2cc(OCCN3CCCCC3)cc(O)c2c1=O.Cl
- pIC50 [1]: 4.68
- pIC50 [2]: 5.09
- pIC50 (Liver microsome): 4.72
- solubility [3]: > 50 mM
- Activity (Rattus norvegicus [4]): 30.1 mm3
- Activity (Rattus norvegicus [5]): 93.6 mm3
- Activity (Rattus norvegicus [6]): 128.9 mm3
- Activity (Rattus norvegicus [7]): 92.1 mm3
- Activity (Rattus norvegicus [8]): 6.7%

SMILES: COc1c(-c2ccc(O)c(O)c2)oc2cc(O)cc(OCCN3CCCCC3)c2c1=O
- pIC50 [1]: < 4.00
- pIC50 [2]: 5.24
- pIC50 (Liver microsome): 4.60

SMILES: COc1c(-c2ccc(O)c(O)c2)oc2cc(O)cc(OCCN3CCCC3)c2c1=O
- pIC50 [1]: 4.08
- pIC50 [2]: 5.34
- pIC50 (Liver microsome): 4.63

SMILES: COc1c(-c2cc(O)c(O)c(O)c2)oc2cc(O)cc(OCCN3CCOCC3)c2c1=O
- pIC50 [1]: 4.63
- pIC50 [2]: < 4.00
- pIC50 (Liver microsome): 4.92

SMILES: COc1c(-c2ccc(O)c(O)c2)oc2cc(O)cc(OCCN3CCOCC3)c2c1=O
- pIC50 [1]: < 4.00
- pIC50 [2]: 4.95
- pIC50 (Liver microsome): 4.43

SMILES: COc1c(-c2cc(O)c(O)c(O)c2)oc2cc(OCCN3CCCCC3)cc(O)c2c1=O
- pIC50 [1]: 4.58
- pIC50 [2]: < 4.00
- pIC50 (Liver microsome): 4.98

SMILES: COc1c(-c2ccc(O)c(O)c2)oc2cc(OCCN3CCCC3)cc(O)c2c1=O
- pIC50 [1]: 4.72
- pIC50 [2]: 4.94
- pIC50 (Liver microsome): 4.66

SMILES: COc1c(-c2cc(O)c(O)c(O)c2)oc2cc(O)cc(OCCN3CCCC3)c2c1=O
- pIC50 [1]: 4.57
- pIC50 [2]: < 4.00
- pIC50 (Liver microsome): 4.96

SMILES: COc1c(-c2ccc(O)c(O)c2)oc2cc(OCCN3CCOCC3)cc(O)c2c1=O
- pIC50 [1]: 4.33
- pIC50 [2]: 5.13
- pIC50 (Liver microsome): 4.79
